Source: patent publication US10907214B2, “Methods for predicting drug responsiveness in cancer patients” (Oncology Venture ApS, priority 2016, dated 2021)

Tested on: patients having breast cancer
Assay: Clinical trial 2: retrospective analysis, breast cancer patients treated with cisplatin, stratified by biomarkers
Format: in vivo, human
Conditions: Trial 2, breast cancer, neoadj, N=24
Excerpt: Table 5 below summarizes the results of these studies.

**Q.** N.N.[Cl][Pt][Cl] [Cisplatin, cisplatin] was tested. Which “overall response rate (ORR)” value (patients predicted in bottom 10% of responsiveness) did it give?
**A.** ORR 50%

**Q.** What about the “overall response rate (ORR)” value (patients predicted in top 10% of responsiveness) of the same molecule?
**A.** ORR 100%
